US20080292619A1, “Pharmaceutical Composition Containing Meltrin Antagonist” (MOCHIDA PHARMACEUTICAL CO., LTD., priority 2004, published 2008)
In the oligonucleotide strings, read from the 5' end, every base follows the letter of its sugar. An asterisk marks phosphorothioate; unmarked linkages are phosphodiester. Other units and linkages are bracketed, terminal groups are in braces. A string of capitals states the bases alone. d = 2'-deoxy (DNA)

Experiments:
[1] = test system: human meltrin α RNA; assay: Suppression of human meltrin α expression by antisense compound in RD cell (real time PCR); format: cell-based; conditions: for suppression rate of expression, 50 nM / suppression rate of expression, 200 nM: corrected by GAPDH; for RNase H-dependent activity of suppressing the meltrin α expression: 2′-methoxy modified form compared to the phosphorothioate form
Method in brief: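 RD cells transfected with heat-denatured antisense oligodeoxynucleotide plus Lipofectin in Opti-MEM for 4 h at 37° C, then cultured 18 h. Meltrin α RNA quantified by TaqMan RT-PCR against plasmid standard curve, GAPDH-corrected; suppression vs untreated cells, rated +/++/+++ for ≥30/50/70%.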

[2] = test system: human preadipocyte; assay: Effect of antisense compound on adipocyte proliferation and differentiation (Adipo Red); format: cell-based
Procedure: First, human preadipocyte (Human Preadipocytes-sq POIETICS #PT-5020, Sanko Junyaku Co., Ltd.) was suspended in growth medium (#PT-8200, Sanko Junyaku Co., Ltd.), and after adding the suspension to a 96 well culture plate at 1×10^4 cells/well/100 μL, the cells were cultured overnight at 37° C. in the presence of 5% CO2.
The preadipocyte was cultured overnight, and after washing the preadipocyte twice with serum-free DMEM, Opti-MEM was added at 80 μL/well.
Gene transfection reagent Lipofectin was diluted with Opti-MEM to 20 μg/mL, and the dilution was allowed to stand at room temperature for 30 minutes. Next, the antisense oligodeoxynucleotide synthesized as described above was heated at 90° C. for 3 minutes, and after quenching on ice, diluted with Opti-MEM to a concentration 10 times higher than the final concentration. Equal amounts of the Lipofectin in Opti-MEM and the antisense oligodeoxynucleotide in Opti-MEM were mixed, and the mixture was incubated at room temperature for 15 minutes and added to 96 well plate at 20 μL/well. After incubating at 37° C. for 4 hours in the presence of 5% CO2, it was used for examination as described below.
The differentiation medium was prepared by using growth medium (#PT-8200, Sanko Junyaku Co., Ltd.) and supplement kit (PGM Single Quots, #PT-9500, Sanko Junyaku Co., Ltd.) according to the instruction of the kit. Next, the culture supernatant containing the Lipofectin was removed from the 96 well plate prepared in the above (2), and the plate was washed twice with serum-free DMEM, and the differentiation medium prepared as described above was added at 100 μL/well. The plate was then incubated at 37° C. for 5 days to 15 days in the presence of 5% CO2.
Accumulation of the neutral fat in the adipocyte was determined by fluorometry using Adipo Red stain.
After taking the 96 well plate out of the CO2 incubator, the plate was allowed to stand until it reached room temperature. The plate was centrifuged at 300 g (1200 rpm) for 10 minutes at room temperature to remove the medium. Next, after gently washing with PBS (SIGMA) at 200 μL/well, PBS was added to the well at 200 μL/well. Next, Adipo Red Assay Reagent (Adipo Red, Cat. #PT-7009, Lot.3F0497, A Cambrex Company) was added at 5 μL/well, and the plate was allowed to stand at room temperature for at least 10 minutes to thereby stain the neutral fat accumulated in the adipocyte. The fat accumulation was determined by measuring fluorescence intensity in a fluorometer at an excitation wavelength of 485 nm and an emission wavelength of 535 nm.
The suppression rate of the adipocyte differentiation was calculated by converting the fluorescence intensity of the well transfected with the antisense compound in relation to the fluorescence intensity of the well without transfection with the antisense compound which was assumed as 100%. The result was rated “+” when the suppression rate was at least 25%, “++” when the suppression rate was at least 50%, and “+++” when the suppression rate was at least 75%.

Substance | suppression rate of expression, 50 nM ([1]; 50 nM, RD cell) | RNase H-dependent activity of suppressing the meltrin α expression [1] | Score (suppressing the human adipocyte differentiation) [2] | suppression rate of expression, 200 nM ([1]; RD cell) | Supression of expression, 50 nM ([1]; 50 nM, RD cell) | Supression of adipose differentiation 300 nM ([2]; 300 nM, human preadipocyte)
H144 + 18: ggccagaggatctgcaggca (GGCCAGAGGATCTGCAGGCA; antisense; DNA, all phosphorothioate, methylation of C not given here) | +++ (“+++” when the suppression rate was at least 70%) | reduced activity of suppressing the meltrin α expression | ++ (“++” when the suppression rate was at least 50%) | – | – | –
H151: gtgtgggtggatctgggcac (dG*dT*dG*dT*dG*dG*dG*dT*dG*dG*dA*dT*dC*dT*dG*dG*dG*dC*dA*dC) | ++ (“++” when the suppression rate was at least 50%) | reduced activity of suppressing the meltrin α expression | ++ (“++” when the suppression rate was at least 50%) | +++ (“+++” when the suppression rate was at least 70%) | – | –
H131: caaggtggccgaggtgagcc (CAAGGTGGCCGAGGTGAGCC; antisense; DNA, all phosphorothioate, methylation of C not given here) | ++ (“++” when the suppression rate was at least 50%) | reduced activity of suppressing the meltrin α expression | +++ (“+++” when the suppression rate was at least 75%) | +++ (“+++” when the suppression rate was at least 70%) | – | –
H133 + 2: tcggtgggtaggaatctggc (TCGGTGGGTAGGAATCTGGC; antisense; DNA, all phosphorothioate, methylation of C not given here) | ++ (“++” when the suppression rate was at least 50%) | – | + (“+” when the suppression rate was at least 25%) | – | – | –
H005: tgcgtcgcgcgcgcgccgtt (TGCGTCGCGCGCGCGCCGTT; antisense; DNA, all phosphorothioate, methylation of C not given here) | ++ (“++” when the suppression rate was at least 50%) | – | ++ (“++” when the suppression rate was at least 50%) | ++ (“++” when the suppression rate was at least 50%) | – | –
H139 + 14: taggtgcacgtggggcccgg (TAGGTGCACGTGGGGCCCGG; antisense; DNA, all phosphorothioate, methylation of C not given here) | ++ (“++” when the suppression rate was at least 50%) | – | ++ (“++” when the suppression rate was at least 50%) | – | – | –
H135 + 15: gggtctgctgatgtcaacat (GGGTCTGCTGATGTCAACAT; antisense; DNA, all phosphorothioate, methylation of C not given here) | – | – | + (“+” when the suppression rate was at least 25%) | – | – | –
5 (dG*dT*dT*dT*dG*dG*dC*dT*dT*dA*dC*dA*dG*dG*dT*dC*dC*dC*dC*dT) [compound 5] | – | – | – | – | ++ (“++” when the suppression rate was at least 50%) | ++ (“++” when the suppression rate was at least 50%)
H136 + 19: ctgagggacattcaggccgt (CTGAGGGACATTCAGGCCGT; antisense; DNA, all phosphorothioate, methylation of C not given here) | +++ (“+++” when the suppression rate was at least 70%) | – | + (“+” when the suppression rate was at least 25%) | – | – | –
H130: tgacagggttggaagccacg (TGACAGGGTTGGAAGCCACG; antisense; DNA, all phosphorothioate, methylation of C not given here) | ++ (“++” when the suppression rate was at least 50%) | reduced activity of suppressing the meltrin α expression | +++ (“+++” when the suppression rate was at least 75%) | +++ (“+++” when the suppression rate was at least 70%) | – | –
H143 + 15: gcttctgaggggggtttggc (GCTTCTGAGGGGGGTTTGGC; antisense; DNA, all phosphorothioate, methylation of C not given here) | +++ (“+++” when the suppression rate was at least 70%) | – | ++ (“++” when the suppression rate was at least 50%) | – | – | –
H143 + 10: tgaggggggtttggcttaca (TGAGGGGGGTTTGGCTTACA; antisense; DNA, all phosphorothioate, methylation of C not given here) | + (“+” when the suppression rate was at least 30%) | – | – | – | – | –
H247: aacctttttaatagtatata (DNA dA*dA*dC*dC*dT*dT*dT*dT*dT*dA*dA*dT*dA*dG*dT*dA*dT*dA*dT*dA; antisense) | – | – | – | + (“+” when the suppression rate was at least 30%) | – | –
